Columns and labels:
Experiment in all cases: relative viability (nuclei count vs DMSO), 5 days (fraction); higher = more cells survive
[1] = compound: Cc1cnc(Nc2ccc(OCCN3CCCC3)cc2)nc1Nc1cccc(S(=O)(=O)NC(C)(C)C)c1 [Fedratinib] + NC(=O)Nc1cc(-c2cccc(F)c2)sc1C(=O)N[C@H]1CCCNC1 [AZD7762] (partner 0.2 µM)
In short: (§1)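 Relative viability equals treated-well nuclei counts divided by vehicle-well nuclei counts. Counts came from 4× images of lung cancer cell lines grown in 1536-well plates for 5 days after pin-tool dosing on the day after seeding. Dosing used one drug alone or a fixed anchor-drug dose plus five library-drug doses (not always all listed) in √10 steps, and values are medians of duplicate plates.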

[2] = compound: COC1=CC=C(C=C1)COC2=C(C=C(C=C2)CC3=CN=C(N=C3N)N)OC [GW-2580] + Cc1cc(Nc2cc(N3CCN(C)CC3)nc(Sc3ccc(NC(=O)C4CC4)cc3)n2)n[nH]1 [Tozasertib] (partner 0.1 µM)
In short: as §1

[3] = compound: COC1=CC=C(C=C1)COC2=C(C=C(C=C2)CC3=CN=C(N=C3N)N)OC [GW-2580] + CCNC(=O)c1noc(-c2cc(C(C)C)c(O)cc2O)c1-c1ccc(CN2CCOCC2)cc1 [Luminespib] (partner 0.01 µM)
In short: as §1

[4] = compound: Cc1cnc(Nc2ccc(OCCN3CCCC3)cc2)nc1Nc1cccc(S(=O)(=O)NC(C)(C)C)c1 [Fedratinib] + CS(=O)(=O)N1CCN(Cc2cc3nc(-c4cccc5[nH]ncc45)nc(N4CCOCC4)c3s2)CC1 [Pictilisib] (partner 1 µM)
In short: as §1

[5] = compound: COC1=CC=C(C=C1)COC2=C(C=C(C=C2)CC3=CN=C(N=C3N)N)OC [GW-2580] + O=C(c1cc(Cc2n[nH]c(=O)c3ccccc23)ccc1F)N1CCN(C(=O)C2CC2)CC1 [Olaparib] (partner 8 µM)
In short: as §1

Cell Line	relative viability ([1]; first compound 0.1 µM)	relative viability ([1]; first compound 0.3162 µM)	relative viability ([1]; first compound 1 µM)	relative viability ([2]; first compound 0.08 µM)	relative viability ([2]; first compound 0.8 µM)	relative viability ([2]; first compound 2.53 µM)	relative viability ([2]; first compound 8 µM)	relative viability ([3]; first compound 0.08 µM)	relative viability ([3]; first compound 0.8 µM)	relative viability ([3]; first compound 2.53 µM)	relative viability ([3]; first compound 8 µM)	relative viability ([4]; first compound 0.1 µM)	relative viability ([4]; first compound 0.3162 µM)	relative viability ([4]; first compound 1 µM)	relative viability ([5]; first compound 0.08 µM)	relative viability ([5]; first compound 0.8 µM)	relative viability ([5]; first compound 2.53 µM)	relative viability ([5]; first compound 8 µM)
NCI-H2126	1.06	1.01	1.01	0.889	0.933	0.822	0.794	0.96	1	0.907	0.825	0.489	0.514	0.391	1.02	0.942	0.793	0.851
EMC-BAC-2	1.16	1.1	0.912	0.279	0.261	0.24	0.261	1.27	1.3	1.17	1.11	0.499	0.575	0.538	0.477	0.514	0.429	0.462
NCI-H1993	0.816	0.694	0.688	0.618	0.526	0.574	0.549	0.853	0.907	0.71	0.852	0.779	0.872	0.771	0.985	1.07	1.06	1.04
NCI-H647	0.424	0.444	0.249	0.358	0.218	0.418	0.189	0.128	0.323	0.136	0.205	0.377	0.477	0.309	0.776	0.667	0.444	0.71
ChaGo-K-1	0.921	0.829	0.81	0.257	0.224	0.233	0.234	0.757	0.677	0.501	0.562	0.487	1	0.289	0.423	0.457	0.388	0.393
LOU-NH91	0.594	0.857	0.658	0.687	0.657	0.625	0.589	0.413	0.34	0.319	0.356	0.432	0.53	0.516	0.916	0.946	0.897	0.98
NCI-H2405	0.7	0.764	0.528	0.8	0.726	0.656	0.524	0.727	0.604	0.671	0.586	0.338	0.443	0.34	0.911	0.981	0.797	0.712
LCLC-97TM1	0.342	0.154	0.21	0.289	0.161	0.154	0.261	0.771	0.728	0.799	0.694	0.196	0.169	0.15	0.379	0.579	0.313	0.428
